Measured values reported in the NIST ThermoML archive (doi:10.1016/j.fluid.2015.07.012).
Numbers after ± are expanded uncertainties.

Test: xn = mol fraction of the nth substance listed
Settings: Liquid; for viscosity: Capillary tube (Ostwald / Ubbelohde) method; for mass density: Vibrating tube method

## CCO [ethanol] + O
350.7 K, 10000 kPa, x1 = 0.1
  viscosity: 0.537 ± 0.016 mPa·s
  mass density: 933.68 ± 11 kg/m3
350.7 K, 10000 kPa, x1 = 0.2
  viscosity: 0.625 ± 0.014 mPa·s
  mass density: 895.78 ± 11 kg/m3
350.7 K, 10000 kPa, x1 = 0.3
  viscosity: 0.632 ± 0.014 mPa·s
  mass density: 863.89 ± 10 kg/m3
350.7 K, 10000 kPa, x1 = 0.4
  viscosity: 0.64 ± 0.014 mPa·s
  mass density: 838.33 ± 10 kg/m3
350.7 K, 10000 kPa, x1 = 0.6
  viscosity: 0.595 ± 0.014 mPa·s
  mass density: 798.55 ± 10 kg/m3
350.7 K, 10000 kPa, x1 = 0.8
  viscosity: 0.531 ± 0.014 mPa·s
  mass density: 768.37 ± 10 kg/m3
350.7 K, 10000 kPa, x1 = 1
  viscosity: 0.461 ± 0.012 mPa·s
  mass density: 745.63 ± 10 kg/m3
350.7 K, 20000 kPa, x1 = 0.1
  viscosity: 0.546 ± 0.016 mPa·s
  mass density: 936.77 ± 11 kg/m3
350.7 K, 20000 kPa, x1 = 0.2
  viscosity: 0.638 ± 0.015 mPa·s
  mass density: 900.9 ± 11 kg/m3
350.7 K, 20000 kPa, x1 = 0.3
  viscosity: 0.661 ± 0.014 mPa·s
  mass density: 870.14 ± 10 kg/m3
350.7 K, 20000 kPa, x1 = 0.4
  viscosity: 0.669 ± 0.014 mPa·s
  mass density: 845.24 ± 10 kg/m3
350.7 K, 20000 kPa, x1 = 0.6
  viscosity: 0.624 ± 0.014 mPa·s
  mass density: 807.87 ± 10 kg/m3
350.7 K, 20000 kPa, x1 = 0.8
  viscosity: 0.57 ± 0.014 mPa·s
  mass density: 778.79 ± 10 kg/m3
350.7 K, 20000 kPa, x1 = 1
  viscosity: 0.518 ± 0.013 mPa·s
  mass density: 757.47 ± 10 kg/m3
350.7 K, 30000 kPa, x1 = 0.1
  viscosity: 0.556 ± 0.016 mPa·s
  mass density: 941.46 ± 11 kg/m3
350.7 K, 30000 kPa, x1 = 0.2
  viscosity: 0.651 ± 0.016 mPa·s
  mass density: 905.65 ± 11 kg/m3
350.7 K, 30000 kPa, x1 = 0.3
  viscosity: 0.684 ± 0.015 mPa·s
  mass density: 876.58 ± 10 kg/m3
350.7 K, 30000 kPa, x1 = 0.4
  viscosity: 0.691 ± 0.015 mPa·s
  mass density: 852.53 ± 10 kg/m3
350.7 K, 30000 kPa, x1 = 0.6
  viscosity: 0.654 ± 0.015 mPa·s
  mass density: 815.61 ± 10 kg/m3
350.7 K, 30000 kPa, x1 = 0.8
  viscosity: 0.601 ± 0.014 mPa·s
  mass density: 787.77 ± 10 kg/m3
350.7 K, 30000 kPa, x1 = 1
  viscosity: 0.555 ± 0.013 mPa·s
  mass density: 766.87 ± 10 kg/m3
350.7 K, 40000 kPa, x1 = 0.1
  viscosity: 0.578 ± 0.017 mPa·s
  mass density: 945.15 ± 11 kg/m3
350.7 K, 40000 kPa, x1 = 0.2
  viscosity: 0.681 ± 0.016 mPa·s
  mass density: 911.39 ± 11 kg/m3
350.7 K, 40000 kPa, x1 = 0.3
  viscosity: 0.726 ± 0.015 mPa·s
  mass density: 881.9 ± 10 kg/m3
350.7 K, 40000 kPa, x1 = 0.4
  viscosity: 0.737 ± 0.015 mPa·s
  mass density: 859.05 ± 10 kg/m3
350.7 K, 40000 kPa, x1 = 0.6
  viscosity: 0.695 ± 0.015 mPa·s
  mass density: 822.93 ± 10 kg/m3
350.7 K, 40000 kPa, x1 = 0.8
  viscosity: 0.643 ± 0.015 mPa·s
  mass density: 795.87 ± 10 kg/m3
350.7 K, 40000 kPa, x1 = 1
  viscosity: 0.59 ± 0.013 mPa·s
  mass density: 775.75 ± 10 kg/m3
373.2 K, 10000 kPa, x1 = 0.1
  viscosity: 0.401 ± 0.014 mPa·s
  mass density: 913.36 ± 11 kg/m3
373.2 K, 10000 kPa, x1 = 0.2
  viscosity: 0.448 ± 0.014 mPa·s
  mass density: 874.72 ± 11 kg/m3
373.2 K, 10000 kPa, x1 = 0.3
  viscosity: 0.461 ± 0.014 mPa·s
  mass density: 842.36 ± 10 kg/m3
373.2 K, 10000 kPa, x1 = 0.4
  viscosity: 0.462 ± 0.014 mPa·s
  mass density: 815.79 ± 10 kg/m3
373.2 K, 10000 kPa, x1 = 0.6
  viscosity: 0.434 ± 0.014 mPa·s
  mass density: 776.56 ± 10 kg/m3
373.2 K, 10000 kPa, x1 = 0.8
  viscosity: 0.381 ± 0.013 mPa·s
  mass density: 747.1 ± 10 kg/m3
373.2 K, 10000 kPa, x1 = 1
  viscosity: 0.364 ± 0.012 mPa·s
  mass density: 726.87 ± 10 kg/m3
373.2 K, 20000 kPa, x1 = 0.1
  viscosity: 0.397 ± 0.014 mPa·s
  mass density: 918.8 ± 11 kg/m3
373.2 K, 20000 kPa, x1 = 0.2
  viscosity: 0.449 ± 0.015 mPa·s
  mass density: 880.64 ± 11 kg/m3
373.2 K, 20000 kPa, x1 = 0.3
  viscosity: 0.473 ± 0.014 mPa·s
  mass density: 849.56 ± 10 kg/m3
373.2 K, 20000 kPa, x1 = 0.4
  viscosity: 0.477 ± 0.014 mPa·s
  mass density: 823.45 ± 10 kg/m3
373.2 K, 20000 kPa, x1 = 0.6
  viscosity: 0.451 ± 0.014 mPa·s
  mass density: 785.48 ± 10 kg/m3
373.2 K, 20000 kPa, x1 = 0.8
  viscosity: 0.406 ± 0.013 mPa·s
  mass density: 757.25 ± 10 kg/m3
373.2 K, 20000 kPa, x1 = 1
  viscosity: 0.382 ± 0.013 mPa·s
  mass density: 738.25 ± 10 kg/m3
373.2 K, 30000 kPa, x1 = 0.1
  viscosity: 0.403 ± 0.014 mPa·s
  mass density: 924.46 ± 11 kg/m3
373.2 K, 30000 kPa, x1 = 0.2
  viscosity: 0.459 ± 0.015 mPa·s
  mass density: 886.74 ± 11 kg/m3
373.2 K, 30000 kPa, x1 = 0.3
  viscosity: 0.484 ± 0.015 mPa·s
  mass density: 856.1 ± 10 kg/m3
373.2 K, 30000 kPa, x1 = 0.4
  viscosity: 0.489 ± 0.015 mPa·s
  mass density: 830.81 ± 10 kg/m3
373.2 K, 30000 kPa, x1 = 0.6
  viscosity: 0.461 ± 0.014 mPa·s
  mass density: 794.06 ± 10 kg/m3
373.2 K, 30000 kPa, x1 = 0.8
  viscosity: 0.439 ± 0.014 mPa·s
  mass density: 767.44 ± 10 kg/m3
373.2 K, 30000 kPa, x1 = 1
  viscosity: 0.404 ± 0.013 mPa·s
  mass density: 750.02 ± 10 kg/m3
373.2 K, 40000 kPa, x1 = 0.1
  viscosity: 0.421 ± 0.015 mPa·s
  mass density: 928.74 ± 11 kg/m3
373.2 K, 40000 kPa, x1 = 0.2
  viscosity: 0.483 ± 0.015 mPa·s
  mass density: 892.24 ± 11 kg/m3
373.2 K, 40000 kPa, x1 = 0.3
  viscosity: 0.515 ± 0.015 mPa·s
  mass density: 862.39 ± 10 kg/m3
373.2 K, 40000 kPa, x1 = 0.4
  viscosity: 0.509 ± 0.015 mPa·s
  mass density: 837.9 ± 10 kg/m3
373.2 K, 40000 kPa, x1 = 0.6
  viscosity: 0.489 ± 0.015 mPa·s
  mass density: 801.93 ± 10 kg/m3
373.2 K, 40000 kPa, x1 = 0.8
  viscosity: 0.456 ± 0.014 mPa·s
  mass density: 776.49 ± 10 kg/m3
373.2 K, 40000 kPa, x1 = 1
  viscosity: 0.443 ± 0.013 mPa·s
  mass density: 757.87 ± 10 kg/m3
476.2 K, 10000 kPa, x1 = 0.1
  viscosity: 0.148 ± 0.011 mPa·s
  mass density: 802.54 ± 11 kg/m3
476.2 K, 10000 kPa, x1 = 0.2
  viscosity: 0.151 ± 0.011 mPa·s
  mass density: 752.52 ± 11 kg/m3
476.2 K, 10000 kPa, x1 = 0.3
  viscosity: 0.144 ± 0.012 mPa·s
  mass density: 713.85 ± 11 kg/m3
476.2 K, 10000 kPa, x1 = 0.4
  viscosity: 0.139 ± 0.012 mPa·s
  mass density: 682.37 ± 10 kg/m3
476.2 K, 10000 kPa, x1 = 0.6
  viscosity: 0.125 ± 0.012 mPa·s
  mass density: 636.05 ± 10 kg/m3
476.2 K, 10000 kPa, x1 = 0.8
  viscosity: 0.113 ± 0.011 mPa·s
  mass density: 605.36 ± 10 kg/m3
476.2 K, 10000 kPa, x1 = 1
  viscosity: 0.107 ± 0.011 mPa·s
  mass density: 582.85 ± 10 kg/m3
476.2 K, 20000 kPa, x1 = 0.1
  viscosity: 0.152 ± 0.011 mPa·s
  mass density: 810.76 ± 11 kg/m3
476.2 K, 20000 kPa, x1 = 0.2
  viscosity: 0.157 ± 0.011 mPa·s
  mass density: 764.89 ± 11 kg/m3
476.2 K, 20000 kPa, x1 = 0.3
  viscosity: 0.153 ± 0.012 mPa·s
  mass density: 728.6 ± 11 kg/m3
476.2 K, 20000 kPa, x1 = 0.4
  viscosity: 0.148 ± 0.012 mPa·s
  mass density: 700.31 ± 10 kg/m3
476.2 K, 20000 kPa, x1 = 0.6
  viscosity: 0.138 ± 0.012 mPa·s
  mass density: 658.71 ± 10 kg/m3
476.2 K, 20000 kPa, x1 = 0.8
  viscosity: 0.129 ± 0.011 mPa·s
  mass density: 633.16 ± 10 kg/m3
476.2 K, 20000 kPa, x1 = 1
  viscosity: 0.123 ± 0.011 mPa·s
  mass density: 613.37 ± 10 kg/m3
476.2 K, 30000 kPa, x1 = 0.1
  viscosity: 0.159 ± 0.011 mPa·s
  mass density: 819.25 ± 11 kg/m3
476.2 K, 30000 kPa, x1 = 0.2
  viscosity: 0.164 ± 0.011 mPa·s
  mass density: 776.24 ± 11 kg/m3
476.2 K, 30000 kPa, x1 = 0.3
  viscosity: 0.164 ± 0.012 mPa·s
  mass density: 743.62 ± 10 kg/m3
476.2 K, 30000 kPa, x1 = 0.4
  viscosity: 0.159 ± 0.012 mPa·s
  mass density: 717.25 ± 10 kg/m3
476.2 K, 30000 kPa, x1 = 0.6
  viscosity: 0.15 ± 0.012 mPa·s
  mass density: 679.71 ± 10 kg/m3
476.2 K, 30000 kPa, x1 = 0.8
  viscosity: 0.144 ± 0.011 mPa·s
  mass density: 656.43 ± 10 kg/m3
476.2 K, 30000 kPa, x1 = 1
  viscosity: 0.138 ± 0.011 mPa·s
  mass density: 638.82 ± 10 kg/m3
476.2 K, 40000 kPa, x1 = 0.1
  viscosity: 0.164 ± 0.011 mPa·s
  mass density: 827.58 ± 11 kg/m3
476.2 K, 40000 kPa, x1 = 0.2
  viscosity: 0.168 ± 0.012 mPa·s
  mass density: 786.01 ± 11 kg/m3
476.2 K, 40000 kPa, x1 = 0.3
  viscosity: 0.172 ± 0.012 mPa·s
  mass density: 754.08 ± 10 kg/m3
476.2 K, 40000 kPa, x1 = 0.4
  viscosity: 0.167 ± 0.012 mPa·s
  mass density: 730.44 ± 10 kg/m3
476.2 K, 40000 kPa, x1 = 0.6
  viscosity: 0.161 ± 0.012 mPa·s
  mass density: 694.35 ± 10 kg/m3
476.2 K, 40000 kPa, x1 = 0.8
  viscosity: 0.155 ± 0.011 mPa·s
  mass density: 671.76 ± 10 kg/m3
476.2 K, 40000 kPa, x1 = 1
  viscosity: 0.151 ± 0.011 mPa·s
  mass density: 656.07 ± 10 kg/m3
